pIC50: −log10 of the molar value.
biological target: T1, human LPA1 (Homo sapiens, UniProt Q92633); experiment: LPA1 functional antagonist assay (calcium flux); assay type: cell-based; conditions: CHO cells overexpressing human LPA1; inhibition of calcium flux induced by 10 nM LPA; read-out: hLPA1 IC50
T1 construct: expressed in transfected cells; host or cells: Chinese hamster ovary (CHO) cells
Procedure, shortened: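 Dye-loaded CHO cells overexpressing human LPA1 (30 min, 37 °C) were preincubated 20 min at room temperature with compound (0.08 nM–5 μM; 0.5% DMSO; HBSS, 20 mM HEPES, 0.1% fatty-acid-free BSA), then stimulated with 10 nM LPA. IC50 is the concentration inhibiting 50% of LPA-induced calcium flux, from a 4-parameter logistic fit.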

T1 sequence (Q92633 whole entry): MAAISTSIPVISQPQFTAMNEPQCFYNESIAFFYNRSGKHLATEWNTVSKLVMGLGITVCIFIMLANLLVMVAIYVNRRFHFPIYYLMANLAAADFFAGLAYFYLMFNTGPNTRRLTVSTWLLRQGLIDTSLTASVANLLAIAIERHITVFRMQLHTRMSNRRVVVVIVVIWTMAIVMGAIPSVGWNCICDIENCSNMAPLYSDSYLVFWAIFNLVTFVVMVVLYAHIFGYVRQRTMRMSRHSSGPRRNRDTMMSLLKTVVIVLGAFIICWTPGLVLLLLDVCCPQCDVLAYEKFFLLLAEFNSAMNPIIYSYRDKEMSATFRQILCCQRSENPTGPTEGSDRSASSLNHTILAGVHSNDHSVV

| Structure (SMILES) | pIC50 |
| --- | --- |
| Cc1nc(-c2nnn(C)c2COc2ccnc(C(F)(F)F)n2)ccc1O[C@H]1CCC[C@H](C(=O)O)C1 [Example 341] | 7.80 |
| Cc1cc(OCc2c(-c3ccc(O[C@H]4CCC[C@H](C(=O)O)C4)c(C)n3)nnn2C)ncn1 [Example 342] | 6.93 |
| Cc1nc(-c2nnn(C)c2COc2nccc(N(C)C)n2)ccc1O[C@H]1CCC[C@H](C(=O)O)C1 [Example 343] | 7.00 |
| COc1nccc(OCc2c(-c3ccc(O[C@H]4CCC[C@H](C(=O)O)C4)c(C)n3)nnn2C)n1 [Example 344] | 6.42 |
| Cc1nc(-c2nnn(C)c2COc2nccc(C(C)C)n2)ccc1O[C@H]1CCC[C@H](C(=O)O)C1 [Example 345] | 8.02 |
| COc1ccnc(OCc2c(-c3ccc(O[C@H]4CCC[C@H](C(=O)O)C4)c(C)n3)nnn2C)n1 [Example 346] | 7.11 |
| CCc1ccnc(OCc2c(-c3ccc(O[C@H]4CCC[C@H](C(=O)O)C4)cn3)nnn2C)n1 [Example 347] | 7.14 |
| Cn1nnc(-c2ccc(O[C@H]3CCC[C@H](C(=O)O)C3)cn2)c1COc1nccc(C2CC2)n1 [Example 348] | 6.93 |
| Cc1nc(-c2nnn(C)c2COc2nccc(N3CCC3)n2)ccc1O[C@H]1CCC[C@H](C(=O)O)C1 [Example 349] | 5.92 |
| Cc1nc(-c2nnn(C)c2COc2ccnc(N3CCC3)n2)ccc1O[C@H]1CCC[C@H](C(=O)O)C1 [Example 350] | 6.25 |
| COc1cc(OCc2c(-c3ccc(O[C@H]4CCC[C@H](C(=O)O)C4)cn3)nnn2C)ncn1 [Example 351] | 7.47 |
| CCc1cc(OCc2c(-c3ccc(O[C@H]4CCC[C@H](C(=O)O)C4)cn3)nnn2C)ncn1 [Example 352] | 7.42 |
| Cn1nnc(-c2ccc(O[C@H]3CCC[C@H](C(=O)O)C3)cn2)c1COc1cc(C(F)F)ncn1 [Example 353] | 7.09 |
| Cc1nc(-c2nnn(C)c2COc2cc(C(F)(F)F)nc(N3CCCC3)n2)ccc1O[C@H]1CCC[C@H](C(=O)O)C1 [Example 354] | 6.77 |
| Cc1nc(-c2nnn(C)c2COc2cc(-c3ccccn3)ncn2)ccc1O[C@H]1CCC[C@H](C(=O)O)C1 [Example 355] | 6.84 |
| Cc1nc(-c2nnn(C)c2COc2cc(N3CCOCC3)ncn2)ccc1O[C@H]1CCC[C@H](C(=O)O)C1 [Example 356] | 6.35 |
| Cc1nc(-c2nnn(C)c2COc2cc(-n3cncn3)ncn2)ccc1O[C@H]1CCC[C@H](C(=O)O)C1 [Example 357] | 6.92 |
| Cc1nc(-c2nnn(C)c2COc2cc(-n3cccc3)ncn2)ccc1O[C@H]1CCC[C@H](C(=O)O)C1 [Example 358] | 7.41 |
| Cc1nc(-c2nnn(C)c2COc2cc(-n3ccnc3)ncn2)ccc1O[C@H]1CCC[C@H](C(=O)O)C1 [Example 359] | 6.33 |
| COCCCCOc1cc(OCc2c(-c3ccc(O[C@H]4CCC[C@H](C(=O)O)C4)c(C)n3)nnn2C)ncn1 [Example 360] | 7.00 |
| Cc1nc(-c2nnn(C)c2COc2cc(OCCOC(C)C)ncn2)ccc1O[C@H]1CCC[C@H](C(=O)O)C1 [Example 361] | 6.28 |
| CCOCCOc1cc(OCc2c(-c3ccc(O[C@H]4CCC[C@H](C(=O)O)C4)c(C)n3)nnn2C)ncn1 [Example 362] | 7.02 |
| CSc1cc(OCc2c(-c3ccc(O[C@H]4CCC[C@H](C(=O)O)C4)c(C)n3)nnn2C)ncn1 [Example 363] | 7.66 |
| CSc1cc(NCc2c(-c3ccc(O[C@H]4CCC[C@H](C(=O)O)C4)c(C)n3)nnn2C)ncn1 [Example 364] | 7.01 |
| Cc1nc(-c2nnn(C)c2CNc2cc(C(F)F)ncn2)ccc1O[C@H]1CCC[C@H](C(=O)O)C1 [Example 365] | 6.93 |
| Cc1nc(-c2nnn(C)c2CNc2nccc(C(F)F)n2)ccc1O[C@H]1CCC[C@H](C(=O)O)C1 [Example 366] | 6.87 |
| CSc1ccnc(OCc2c(-c3ccc(O[C@H]4CCC[C@H](C(=O)O)C4)c(C)n3)nnn2C)n1 [Example 367] | 8.10 |
| Cn1nnc(-c2ccc(O[C@H]3CCC[C@H](C(=O)O)C3)cn2)c1COc1cc(C(F)(F)F)ncn1 [Example 368] | 7.10 |
| Cc1nc(-c2nnn(C)c2COc2cc(-n3cccn3)ncn2)ccc1O[C@H]1CCC[C@H](C(=O)O)C1 [Example 369] | 8.08 |
| Cc1nc(-c2nnn(C)c2COc2nccc(C(C)(F)F)n2)ccc1O[C@H]1CCC[C@H](C(=O)O)C1 [Example 370] | 7.68 |

More lines, now with the values ahead:

| pIC50 | Structure (SMILES) |
| --- | --- |
| 7.80 | Cc1nc(-c2nnn(C)c2CNc2cc(C3CC3)ccn2)ccc1O[C@H]1CCC[C@H](C(=O)O)C1 [Example 371, (1S,3S)-3-((6-(5-(((4-cyclopropylpyridin-2-yl)amino)methyl)-1-methyl-1H-1,2,3-triazol-4-yl)-2-methylpyridin-3-yl)oxy)cyclohexane-1-carboxylic acid] |
| 6.70 | Cc1nc(-c2nnn(C)c2CNc2cc(-c3ccccc3)c(Cl)nn2)ccc1O[C@H]1CCC[C@H](C(=O)O)C1 [Example 372, (1S,3S)-3-((6-(5-(((6-chloro-5-phenylpyridazin-3-yl)amino)methyl)-1-methyl-1H-1,2,3-triazol-4-yl)-2-methylpyridin-3-yl)oxy)cyclohexane-1-carboxylic acid] |
| 7.10 | Cc1nc(-c2nnn(C)c2CNc2cc(C3CC3)ncn2)ccc1O[C@H]1CCC[C@H](C(=O)O)C1 [Example 373] |
| 7.05 | Cc1nc(-c2nnn(C)c2CNc2ccnc(C3CC3)n2)ccc1O[C@H]1CCC[C@H](C(=O)O)C1 [Example 374] |
| 6.96 | Cc1nc(-c2nnn(C)c2Cc2cccc(-c3ccccc3)n2)ccc1O[C@H]1CCC[C@H](C(=O)O)C1 [Example 376] |
| 8.14 | Cc1nc(-c2nnn(C)c2Cc2cc(-c3ccccc3)ccn2)ccc1O[C@H]1CCC[C@H](C(=O)O)C1 [Example 377] |
| 7.60 | Cc1nc(-c2nnn(C)c2Cc2nccc(-c3ccccc3)n2)ccc1O[C@H]1CCC[C@H](C(=O)O)C1 [Example 378] |
| 7.03 | Cc1nc(-c2nnn(C)c2CN(C)c2ncnc(C3CC3)n2)ccc1O[C@H]1CCC[C@H](C(=O)O)C1 [Example 379, (1S,3S)-3-{[6-(5-{[(4-cyclopropyl-1,3,5-triazin-2-yl)(methyl)amino]methyl}-1-methyl-1H-1,2,3-triazol-4-yl)-2-methylpyridin-3-yl]oxy}cyclohexane-1-carboxylic acid] |
| 7.03 | CCCc1cncc(NCc2c(-c3ccc(O[C@H]4CCC[C@H](C(=O)O)C4)c(C)n3)nnn2C)n1 [Example 380, (1S,3S)-3-((2-Methyl-6-(1-methyl-5-(((6-propylpyrazin-2-yl)amino)methyl)-1H-1,2,3-triazol-4-yl)pyridin-3-yl)oxy)cyclohexane-1-carboxylic acid] |
| 7.42 | CCCCc1ncnc(N(C)Cc2c(-c3ccc(O[C@H]4CCC[C@H](C(=O)O)C4)c(C)n3)nnn2C)n1 [Example 381] |
| 7.92 | CCCCc1cncc(NCc2c(-c3ccc(O[C@H]4CCC[C@H](C(=O)O)C4)c(C)n3)nnn2C)n1 [Example 382] |
| 6.64 | Cc1nc(-c2nnn(C)c2CNc2nccc(OC3CC3)n2)c(F)cc1O[C@H]1CCC[C@H](C(=O)O)C1 [Example 383] |
| 7.32 | CCOc1ccnc(NCc2c(-c3nc(C)c(O[C@H]4CCC[C@H](C(=O)O)C4)cc3F)nnn2C)n1 [Example 384] |
| 7.39 | CCc1nc(-c2nnn(C)c2CNc2nccc(C(C)(C)C)n2)ccc1O[C@H]1CCC[C@H](C(=O)O)C1 [Example 385] |
| 6.34 | CCc1nc(-c2nnn(C)c2CNc2nccc(OC)n2)ccc1O[C@H]1CCC[C@H](C(=O)O)C1 [Example 386] |
| 7.62 | CCc1nc(-c2nnn(C)c2CNc2nccc(C3CCC3)n2)ccc1O[C@H]1CCC[C@H](C(=O)O)C1 [Example 387] |
| 7.35 | CCc1nc(-c2nnn(C)c2CNc2nccc(C3CC3)n2)ccc1O[C@H]1CCC[C@H](C(=O)O)C1 [Example 388] |
| 8.03 | CCc1nc(-c2nnn(C)c2CNc2nccc(C(C)C)n2)ccc1O[C@H]1CCC[C@H](C(=O)O)C1 [Example 389] |
| 7.77 | CCc1nc(-c2nnn(C)c2CNc2nccc(OC3CC3)n2)ccc1O[C@H]1CCC[C@H](C(=O)O)C1 [Example 390] |
| 6.68 | CCc1nc(-c2nnn(C)c2CNc2ccnc(OC3CC3)n2)ccc1O[C@H]1CCC[C@H](C(=O)O)C1 [Example 391] |
| 7.82 | CCCOc1ccnc(NCc2c(-c3ccc(O[C@H]4CCC[C@H](C(=O)O)C4)c(CC)n3)nnn2C)n1 [Example 392] |
| 7.82 | CCOc1ccnc(NCc2c(-c3ccc(O[C@H]4CCC[C@H](C(=O)O)C4)c(CC)n3)nnn2C)n1 [Example 393] |
| 6.99 | Cc1nc(-c2nnn(C)c2Nc2nccc(OCCC(F)(F)F)n2)ccc1O[C@H]1CCC[C@H](C(=O)O)C1 [Example 394] |
| 7.29 | Cc1nc(-c2nnn(C)c2Nc2nccc(OCCCF)n2)ccc1O[C@H]1CCC[C@H](C(=O)O)C1 [Example 395] |
| 7.38 | Cc1nc(-c2nnn(C)c2Nc2nccc(OCC(F)(F)F)n2)ccc1O[C@H]1CCC[C@H](C(=O)O)C1 [Example 396] |
| 5.99 | Cc1nc(-c2nnn(C)c2CNc2cccc(Cc3ccccc3)n2)ccc1O[C@H]1CCC[C@H](C(=O)O)C1 [Example 397] |
| 7.57 | CCCc1cccc(NCc2c(-c3ccc(O[C@H]4CCC[C@H](C(=O)O)C4)c(C)n3)nnn2C)n1 [Example 398] |
| 6.27 | Cc1nc(-c2nnn(C)c2CNc2cccc(C3CC3)n2)ccc1O[C@H]1CCC[C@H](C(=O)O)C1 [Example 399] |
| 6.17 | Cc1nc(-c2nnn(C)c2CCNc2nccc(C(C)(C)C)n2)ccc1O[C@H]1CCC[C@H](C(=O)O)C1 [Example 400, (1S,3S)-3-((6-(5-(2-((4-(tert-butyl)pyrimidin-2-yl)amino)ethyl)-1-methyl-1H-1,2,3-triazol-4-yl)-2-methylpyridin-3-yl)oxy)cyclohexane-1-carboxylic acid] |
| 5.80 | Cc1nc(-c2nnn(C)c2CCNc2nccc(C(C)C)n2)ccc1O[C@H]1CCC[C@H](C(=O)O)C1 [Example 401] |

Reference: patent publication US11267800B2, “Cyclohexyl acid triazole azines as LPA antagonists” (BRISTOL-MYERS SQUIBB COMPANY, priority 2017, dated 2022)
